Assay results from US8299049B2, “Compositions comprising an extract of Tiarella polyphylla or compounds isolated therefrom for preventing and treating cancer diseases” (Korea Institute of Bioscience and Biotechnology, priority 2007, dated 2012).

Legend:
TM4SF5-null cells = assay: Immunofluorescence of focal adhesions and actin, TM4SF5-null cells; type: cell-based; settings: 20 μM TA
Procedure: Cells were treated with DMSO or 20 μM TA for 24 hrs. Then, the cells were plated on 10 μg/ml fibronectin-precoated coverslips and incubated for 2 hrs in the presence of DMSO or 20 μM TA. Subsequently, immunofluorescence staining was performed using pY^397 FAK, pY^118 paxillin, and actin, as described in the literature (Lee, S. Y. et al., Focal adhesion and actin organization by a cross-talk of TM4SF5 with integrin α2 are regulated by serum treatment, Exp Cell Res, 312, pp. 2983-99, 2006). Mounted samples were visualized by a fluorescent microscope (BX51, Olympus, Japan).

[1] = test system: focal adhesion molecules in cells that express endogenous TM4SF5; assay: Focal adhesion molecule activation in cells endogenously expressing TM4SF5; type: cell-based; settings: FIG. 12
Procedure: (§1) Whole cell lysates from cells under diverse experimental conditions were prepared, as described in the literature (Lee, S. Y. et al., Focal adhesion and actin organization by a cross-talk of TM4SF5 with integrin α2 are regulated by serum treatment, Exp Cell Res, 312, pp. 2983-99, 2006). For example, cells were subjected to electroporation (950 μF, 250 V) with a control GFP, wild-type focal adhesion kinase (FAK), paxillin, p130Cas cDNA. One day after electroporation, cells were treated with TA (20 μM) for the indicated periods. Cells cultured normally or treated with TA at different concentrations for the indicated periods were harvested using RIPA buffer. Control or tumor tissues from nude mice were frozen immediately after surgery using liquid N2. Tissues in the liquid N2 was homogenized using a mortar and pestle, and extracted using 0.1% SDS containing RIPA buffer. Standard Western blots of lysates were performed by using antibody against phospho-Y^397, Y^407, Y^577, Y^861, Y^925 FAK (BioSource International, Inc., Camarillo, Calif.), phospho-Y^416Src, c-Src, p15^INK4B, p16^INK4A (Santa Cruz Biotech., Santa Cruz, Calif.), FAK, p130Cas, paxillin, pY^118paxillin, active caspase-3 (BD Transduct. Lab., San Jose, Calif.), α-tubulin (Sigma, St Louis, Mo.), phopsho-S^473, or T^308Akt, Akt, phospho-Erk1/2, Erk1/2 (Cell Signaling Tech., Danvers, Mass.), and TM4SF5 (homemade).

[2] = test system: Akt and caspase-3 in TM4SF5-expressing SNU449T16 cells; assay: Western blotting of cell survival and death-related signaling molecules; type: cell-based; settings: various time periods
Procedure: FIG. 18 is the result of Western blotting of cell survival and death-related signaling molecules, after tiarellic acid (TA) treatment for various time periods;
Whole cell lysates from cells under diverse experimental conditions were prepared, as described in the literature (Lee, S. Y. et al., Focal adhesion and actin organization by a cross-talk of TM4SF5 with integrin α2 are regulated by serum treatment, Exp Cell Res, 312, pp. 2983-99, 2006). For example, cells were subjected to electroporation (950 μF, 250 V) with a control GFP, wild-type focal adhesion kinase (FAK), paxillin, p130Cas cDNA. One day after electroporation, cells were treated with TA (20 μM) for the indicated periods. Cells cultured normally or treated with TA at different concentrations for the indicated periods were harvested using RIPA buffer. Control or tumor tissues from nude mice were frozen immediately after surgery using liquid N2. Tissues in the liquid N2 was homogenized using a mortar and pestle, and extracted using 0.1% SDS containing RIPA buffer. […]

[3] = test system: TM4SF5-null cells (SNU449P, SNU449Cp); assay: Degree of adhesion on fibronectin-precoated dishes, TM4SF5-null cells; type: cell-based; settings: 20 μM TA 24 hr, reseeded on fibronectin 1 hr
Procedure: Thus, it could be thought that TA treatment induces anoikis of TM4SF5-expressing cells. To examine whether TA treatment affected cellular adhesion, the following procedure was performed prior to analysis of TA-meditated cell death, as described in the literature (Yang, X. et al., Palmitoylation supports assembly and function of integrin-tetraspanin complexes, J Cell Biol, 167, pp. 1231-40, 2004).
Cells were treated with 20 μM TA for 24 hr, and the floating cells were collected and reseeded on fibronectin-precoated dishes for 1 hr before determination of the degree of adhesion.

[4] = test system: SNU449T16 cells introduced with GFP control, wild-type FAK, paxillin or p130Cas cDNA; assay: TA-mediated effects under overexpression of focal adhesion molecules; type: cell-based
Procedure: as §1
To evaluate whether overexpression of focal adhesion molecules such as focal adhesion kinase (FAK), paxillin, and p130Cas would block the effects of TA treatment, the following procedure was performed as described in the literature (Lee, S. Y. et al., Focal adhesion and actin organization by a cross-talk of TM4SF5 with integrin α2 are regulated by serum treatment, Exp Cell Res, 312, pp. 2983-99, 2006).
To explore this, each cDNA was introduced into SNU449T16 cells via electroporation. After 1 day, the cells were treated with 20 μM TA for 24 hrs to obtain lysates. […] Therefore, the TA-mediated effects on TM4SF5-expressing cells could be overcome to a certain degree by overexpression of focal adhesion molecules. On the other hand, changes in Erk1/2 activation were not observed under each experimental condition, thereby understanding TA-mediated effects on signal transduction in this experimental system.

[5] = test system: TM4SF5-expressing SNU449T16 cells tumors; assay: TM4SF5-mediated tumor formation in nude mice; type: in vivo; settings: for tumor volumes decreased to: 30 days
Procedure: (§2) 4-5 week old female nude mice (BALB/cAnNCrjBgi-nu) were purchased from Orient. Co. Ltd. (Seongnam, Korea). The mice were housed in a specific pathogen-free room under controlled temperature and humidity. All animal procedures were performed in accordance with the procedures in Seoul National University Laboratory Animal Maintenance Manual and with IRB agreement. Mice aged 5-6 weeks were injected subcutaneously with 5×10^6 viable SNU449Cp or SNU449T16 cells. Tumor volumes were measured with a caliper and calculated using the following Mathematical Formula 1. When the tumor volume reached 200 mm^3, mice were injected intraperitoneally with 3 mg/kg or 30 mg/kg (body weight) of tiarellic acid (TA) every other day for 30 days. (Width×Length^2)/2 [Mathematical Formula 1]
Width: minimal diameter (mm)
Length: maximal diameter (mm)
(§3) To evaluate whether tiarellic acid (TA) administration might interfere with TM4SF5 mediated tumor formation in nude mice, the following experiment was performed as described in the literature (Lee S-A et al., TM4SF5-mediated transmodulation between cytosolic p27Kip1 and Rho GTPases and epithelial-mesenchymal transition cause loss of contact inhibition, Cancer Cell, 2007).

[6] = Body weight and toxic side effects in tumor-bearing nude mice; type: in vivo; settings: 3 or 30 mg/kg i.p. every other day, 30 days
Procedure: as §2, §3

[7] = test system: TM4SF5-expressing SNU449Tp cells; assay: Inhibitory effect on growth of TM4SF5-expressing cell; type: cell-based
Procedure: After virus infection, pooled stable clones (control SNU449Cp and TM4SF5-expressing SNU449Tp cell clones) and single cell-driven stable clones (TM4SF5-expressing SNU449T16) were prepared by infecting SNU449 hepatocytes (Korean Cell Bank, Seoul, Korea) with retrovirus for empty pLNCX or pLNCX with TM4SF5. Parental and control cells (Cp) were maintained in RPMI-1640/10% FBS/0.25 μg/ml gentamycin (Calbiochem, San Diego, Calif.) without or with 200 μg/ml G418 (A.G. Scientific Inc., San Diego, Calif.), respectively, at 37° C. and 5% CO2. Cells endogenously expressing TM4SF5 or cells endogenously expressing no TM4SF5 (Korean Cell Bank) were maintained in either DMEM-H or RPMI-1640 media with 10% FBS (JBI Inc., Daegu, Korea).

[8] = test system: SNU449Tp cells expressing TM4SF5; assay: Number of floating cells, SNU449Tp; type: cell-based; settings: TA versus DMSO
Excerpt: FIG. 17 is a graph showing the number of floating SNU449Cp and SNU449Tp cells, after tiarellic acid (TA) treatment for various time periods;

[9] = test system: Akt, p15INK4B, p16INK4A, caspase-3 in TM4SF5-mediated tumor tissue; assay: Western blot and immunohistochemical staining of tumor tissue from nude mice; type: in vivo; settings: Western blot; TA administration
Procedure: as §1, §2, §3

C=C(C)C1CC[C@]2(C)CC[C@]3(C(=O)O)C(CCC4[C@@]5(C)CC[C@H](O)[C@@](C)(CO)C5CC[C@]43C)C12 (some centres unmarked) [tiarellic acid (TA), 3,23-dihydroxy-20(29)-lupen-27-oic acid]
focal adhesion formation (TM4SF5-null cells): did not affect
inhibitory effects on focal adhesion molecule activation [1]: observed
Akt and caspase-3 activity [2]: Akt inactivation and caspase-3 activation
adhesion [3]: not affected
TA-mediated increases in the sub-G1 population under overexpression ([4]; SNU449T16 overexpressing focal adhesion molecules): blocked
focal adhesion molecule and caspase-3 activity ([4]; SNU449T16 with control plasmid (GFP), 20 μM TA): time-dependent inactivation of focal adhesion molecules and activation of caspase-3
TA-mediated effects under overexpression ([4]; SNU449T16 with wild-type FAK, paxillin, or p130Cas, 20 μM TA): certain degrees of blocking
changes in Erk1/2 activation ([4]; each experimental condition): not observed
tumor volumes decreased to ([5]; 3 mg/kg body weight i.p. every other day): 46.0%
tumor volumes decreased to ([5]; 30 mg/kg body weight i.p. every other day): 22.1%
TM4SF5-mediated tumor formation ([5]; intraperitoneally every other day for 30 days, established tumors ~200 mm^3): decreased
body weight [6]: increased normally
toxic side effects [6]: no significant toxic side effects
number of TM4SF5-expressing cells ([7]; FIG. 4, depending on concentration and time): decreased
inhibitory effect on cell growth ([7]; SNU449Tp, 5 μM, 3 days): inhibitory effect was observed
cell density and cell shape ([7]; SNU449Tp, 20 μM, 3 days): reduced cell density and round shaped cells were observed
inhibitory effect on the growth of TM4SF5-expressing cell ([7]; TA 0, 0.1, 5, 20 μM): inhibitory effect
number of floating cells [8]: increased
Akt activation in tumor tissue [9]: decreased
caspase-3 activation in tumor tissue [9]: enhanced
